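Exposure lasted 48 hours, with cells grown in 96-well plates and compounds tested at five concentrations. GI50 = concentration required for 50% inhibition of growth.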 The source made the active and inactive calls. Cut-off read from the data, not from the text of the source: active = GI50 up to about 1.1 µM and inactive = higher.
Assays:
Experiment in all cases: NCI tumour cell line growth inhibition, 48 h
DLD-1 = test system: DLD-1
LXFL 529 = test system: LXFL 529
DMS-114 = test system: DMS-114
HOP-18 = test system: HOP-18
KM-20L2 = test system: KM-20L2
DMS-273 = test system: DMS-273
RXF 631 = test system: RXF 631
M19-MEL = test system: M19-MEL
SNB-78 = test system: SNB-78
EKVX = test system: EKVX
A549 = test system: A549
COLO 205 = test system: COLO 205
SF-295 = test system: SF-295
CCRF-CEM = test system: CCRF-CEM
SW-620 = test system: SW-620
HOP-62 = test system: HOP-62
OVCAR-4 = test system: OVCAR-4
HCT-116 = test system: HCT-116
SK-MEL-28 = test system: SK-MEL-28
HOP-92 = test system: HOP-92
HCT-15 = test system: HCT-15
U-251 = test system: U-251
TK-10 = test system: TK-10
Malme-3M = test system: Malme-3M
786-0 = test system: 786-0
HL-60 = test system: HL-60
UACC-62 = test system: UACC-62
A498 = test system: A498
UO-31 = test system: UO-31
RPMI-8226 = test system: RPMI-8226
K562 = test system: K562
RXF 393 = test system: RXF 393
SF-539 = test system: SF-539
KM12 = test system: KM12
NCI-H522 = test system: NCI-H522
NCI-H460 = test system: NCI-H460
MOLT-4 = test system: MOLT-4
LOX IMVI = test system: LOX IMVI
CAKI-1 = test system: CAKI-1
OVCAR-8 = test system: OVCAR-8
UACC-257 = test system: UACC-257
SN12C = test system: SN12C
ACHN = test system: ACHN
HT-29 = test system: HT-29
OVCAR-5 = test system: OVCAR-5
IGROV-1 = test system: IGROV-1
NCI-H226 = test system: NCI-H226
SNB-19 = test system: SNB-19
OVCAR-3 = test system: OVCAR-3
SK-MEL-5 = test system: SK-MEL-5
M14 = test system: M14
SF-268 = test system: SF-268

Measured: GI50

C/C=C/C=C/c1cc2cc3c(c(O)c2c(=O)[nH]1)C1(CC3)C(=O)c2c(O)c3c(c(O)c2C1=O)C(=O)C(OC)=CC3=O (stereo not given)
active: DLD-1 0.552 µM | LXFL 529 0.44 µM | DMS-114 0.337 µM | HOP-18 0.615 µM | KM-20L2 1.08 µM | DMS-273 0.414 µM | M19-MEL 0.953 µM
inactive: RXF 631 13.2 µM | SNB-78 4.11 µM

COc1ccc(C(C#N)Cc2cc(OC)c(OC)c(OC)c2)cc1 (stereo not given)
inactive: DLD-1 45.7 µM | EKVX 40.7 µM | LXFL 529 41.8 µM | A549 30.6 µM | COLO 205 19.2 µM | SF-295 10.3 µM | CCRF-CEM 28.8 µM | SW-620 15.7 µM | HOP-62 22.3 µM | OVCAR-4 39.3 µM | DMS-114 17.4 µM | HCT-116 39.9 µM | SK-MEL-28 54.8 µM | HOP-92 21.7 µM | U-251 29.6 µM | TK-10 37.6 µM | Malme-3M 43.1 µM | 786-0 44.1 µM | HL-60 15 µM | UACC-62 27.8 µM | A498 17.4 µM | UO-31 30.8 µM | RPMI-8226 23.4 µM | HOP-18 > 100 µM | K562 4.99 µM | RXF 393 16.4 µM | SF-539 23.4 µM | KM12 24 µM | NCI-H522 22.4 µM | NCI-H460 12.1 µM | MOLT-4 28.2 µM | LOX IMVI 28.6 µM | DMS-273 7.16 µM | CAKI-1 29.3 µM | OVCAR-8 37 µM | UACC-257 50.5 µM | SN12C 41.3 µM | RXF 631 35.6 µM | ACHN 45.8 µM | HT-29 33 µM | OVCAR-5 64.7 µM | IGROV-1 31.9 µM | M19-MEL 29.9 µM | NCI-H226 94.2 µM | SNB-78 39.8 µM | SNB-19 54.2 µM | OVCAR-3 31.4 µM | SK-MEL-5 17.6 µM | M14 33.4 µM | SF-268 49.2 µM
17.8 µM: HCT-15

Reference: ChEMBL document CHEMBL1201862, “PubChem BioAssay data set” (2004)
